# Molecular target: T1, gamma-secretase (Homo sapiens, UniProt P49768, M146L)
# T1 construct: expressed in transfected cells; host or cells: CHO-K1 clone 30-12, co-expressing CT100 of APP and PS1 M146L
# Experiment: β-amyloid cellular test: inhibition of production of β-amyloid (β-A4) peptide, ELISA of cell supernatants
# Format: cell-based
# Conditions: line CHO-K1 co-expressing the CT100 of APP and PS1 M146L clone 30-12; incubated 24-25 hours; secreted amyloid peptide by ELISA; read-out: EC50 (50% effective concentration), inhibition of production of the β-amyloid (β-A4) peptide
# Excerpt: For the β-amyloid cellular test, the line CHO-K1 co-expressing the CT100 of APP and PS1 M146L clone 30-12 is used. The line targets the inhibition of gamma-secretase. […]
# The amount of bound peptide is detected indirectly in the presence of a competitor corresponding to the truncated peptide, the biotin-coupled peptide 1-28, which is then detected with alkaline phosphatase-coupled streptavidin. The substrate, p-nitrophenyl phosphate (pNPP FAST p-Nitrophenyl Phosphate, Sigma N2770) gives a yellow soluble reaction product that can be read at 405 nm. […] After incubation for 30 minutes at room temperature, the reaction is quenched by adding 100 μl per well of 0.1M EDTA and the reading is taken at 405 nm.
smiles,measurement,value
"CCC[C@H](NC(=O)Cc1cc(F)cc(F)c1)C(=O)Nc1nc(C(=O)OC)c(-c2ccccc2Oc2ccc(F)cc2)s1 [Compound 13, Methyl 2-{2-(S)-[2-(3,5-difluorophenyl)acetylamino]-pentanoyl}amino-5-[2-(4-fluorophenoxy)phenyl]thiazole-4-carboxylate]",EC50,6 nM
